Results: ChEMBL document CHEMBL4507256 (2021)

Key:
[1] = biological target: Non-receptor tyrosine-protein kinase TYK2 (Homo sapiens) (UniProt P29597); settings: Compound concentration 1000.0 nM
[2] = biological target: STE20/SPS1-related proline-alanine-rich protein kinase (Homo sapiens) (UniProt Q9UEW8); settings: Compound concentration 1000.0 nM
[3] = biological target: Mitogen-activated protein kinase 10 (Homo sapiens) (UniProt P53779); settings: Compound concentration 1000.0 nM
[4] = biological target: T1, Muscarinic acetylcholine receptor M1 (Homo sapiens) (UniProt P11229); settings: Compound concentration 10.0 uM
T1 sequence (whole entry): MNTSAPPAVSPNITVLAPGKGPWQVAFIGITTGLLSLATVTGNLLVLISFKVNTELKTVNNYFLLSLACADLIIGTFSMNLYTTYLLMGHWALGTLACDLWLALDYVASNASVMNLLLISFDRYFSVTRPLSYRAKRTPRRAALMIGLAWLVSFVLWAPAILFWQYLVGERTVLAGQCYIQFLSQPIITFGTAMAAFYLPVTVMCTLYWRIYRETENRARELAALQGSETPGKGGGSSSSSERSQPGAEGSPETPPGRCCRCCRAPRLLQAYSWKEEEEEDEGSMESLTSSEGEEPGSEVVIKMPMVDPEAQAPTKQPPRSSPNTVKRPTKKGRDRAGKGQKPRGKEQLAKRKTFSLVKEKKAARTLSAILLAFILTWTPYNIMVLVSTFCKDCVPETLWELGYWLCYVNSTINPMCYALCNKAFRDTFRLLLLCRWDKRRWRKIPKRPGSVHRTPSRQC

[5] = biological target: Mitogen-activated protein kinase 1 (Homo sapiens) (UniProt P28482); settings: Compound concentration 1000.0 nM
[6] = biological target: Ribosomal protein S6 kinase alpha-6 (Homo sapiens) (UniProt Q9UK32); settings: Compound concentration 1000.0 nM
[7] = biological target: Mitogen-activated protein kinase kinase kinase 5 (Homo sapiens) (UniProt Q99683); settings: Compound concentration 1000.0 nM
[8] = biological target: Serine/threonine-protein kinase D1 (Homo sapiens) (UniProt Q15139); settings: Compound concentration 1000.0 nM
[9] = biological target: MAP/microtubule affinity-regulating kinase 3 (Homo sapiens) (UniProt P27448); settings: Compound concentration 1000.0 nM
[10] = biological target: Membrane-associated tyrosine- and threonine-specific cdc2-inhibitory kinase (Homo sapiens) (UniProt Q99640); settings: Compound concentration 1000.0 nM
[11] = biological target: Mitogen-activated protein kinase 14 (Homo sapiens) (UniProt Q16539); settings: Compound concentration 1000.0 nM
[12] = biological target: Tyrosine-protein kinase ABL1 (Homo sapiens) (UniProt P00519); settings: Compound concentration 1000.0 nM
[13] = biological target: Tyrosine-protein kinase receptor Tie-1 (Homo sapiens) (UniProt P35590); settings: Compound concentration 1000.0 nM
[14] = biological target: 5-hydroxytryptamine receptor 7 (Homo sapiens) (UniProt P34969); settings: Compound concentration 10.0 uM
[15] = biological target: Calcium/calmodulin-dependent protein kinase type II subunit gamma (Homo sapiens) (UniProt Q13555); settings: Compound concentration 1000.0 nM
[16] = biological target: MAP/microtubule affinity-regulating kinase 4 (Homo sapiens) (UniProt Q96L34); settings: Compound concentration 1000.0 nM
[17] = biological target: Protein kinase C iota type (Homo sapiens) (UniProt P41743); settings: Compound concentration 1000.0 nM
[18] = biological target: D(1A) dopamine receptor (Homo sapiens) (UniProt P21728); settings: Compound concentration 10.0 uM
[19] = biological target: Histamine H3 receptor (Homo sapiens) (UniProt Q9Y5N1); settings: Compound concentration 10.0 uM
[20] = biological target: MAP kinase-activated protein kinase 2 (Homo sapiens) (UniProt P49137); settings: Compound concentration 1000.0 nM
[21] = biological target: Atypical kinase COQ8B, mitochondrial (Homo sapiens) (UniProt Q96D53); settings: Compound concentration 1000.0 nM
[22] = system: Phosphatidylinositol 4,5-bisphosphate 3-kinase catalytic subunit alpha isoform (Homo sapiens), P42336 [H1047L]; settings: Compound concentration 1000.0 nM
[23] = biological target: Serine/threonine-protein kinase 36 (Homo sapiens) (UniProt Q9NRP7); settings: Compound concentration 1000.0 nM
[24] = biological target: Casein kinase II subunit alpha (Homo sapiens) (UniProt P68400); settings: Compound concentration 1000.0 nM
[25] = biological target: TGF-beta receptor type-1 (Homo sapiens) (UniProt P36897); settings: Compound concentration 1000.0 nM
[26] = biological target: Muscle, skeletal receptor tyrosine-protein kinase (Homo sapiens) (UniProt O15146); settings: Compound concentration 1000.0 nM
[27] = biological target: GABA-A receptor; anion channel (Rattus norvegicus) (UniProt O09028+P15431+P18506+P18508+P19969+P20236+P23574+P23576+P28471+P28473+P30191+P62813+P63079+P63138+Q91ZM7+Q9ES14); settings: Compound concentration 10.0 uM
[28] = biological target: Casein kinase I isoform gamma-1 (Homo sapiens) (UniProt Q9HCP0); settings: Compound concentration 1000.0 nM
[29] = biological target: Serine/threonine-protein kinase SIK3 (Homo sapiens) (UniProt Q9Y2K2); settings: Compound concentration 1000.0 nM
[30] = biological target: Serine/threonine-protein kinase DCLK3 (Homo sapiens) (UniProt Q9C098); settings: Compound concentration 1000.0 nM
[31] = biological target: Serine/threonine-protein kinase haspin (Homo sapiens) (UniProt Q8TF76); settings: Compound concentration 1000.0 nM
[32] = biological target: Serine/threonine-protein kinase 3 (Homo sapiens) (UniProt Q13188); settings: Compound concentration 1000.0 nM
[33] = biological target: Aurora kinase C (Homo sapiens) (UniProt Q9UQB9); settings: Compound concentration 1000.0 nM
[34] = biological target: D(3) dopamine receptor (Homo sapiens) (UniProt P35462); settings: Compound concentration 10.0 uM
[35] = biological target: Wee1-like protein kinase 2 (Homo sapiens) (UniProt P0C1S8); settings: Compound concentration 1000.0 nM
[36] = biological target: Serine/threonine-protein kinase Nek2 (Homo sapiens) (UniProt P51955); settings: Compound concentration 1000.0 nM
[37] = biological target: Myosin light chain kinase (Homo sapiens) (UniProt Q32MK0); settings: Compound concentration 1000.0 nM

MAP kinase-activated protein kinase 2 (Homo sapiens), sequence (P49137 whole entry, looked up): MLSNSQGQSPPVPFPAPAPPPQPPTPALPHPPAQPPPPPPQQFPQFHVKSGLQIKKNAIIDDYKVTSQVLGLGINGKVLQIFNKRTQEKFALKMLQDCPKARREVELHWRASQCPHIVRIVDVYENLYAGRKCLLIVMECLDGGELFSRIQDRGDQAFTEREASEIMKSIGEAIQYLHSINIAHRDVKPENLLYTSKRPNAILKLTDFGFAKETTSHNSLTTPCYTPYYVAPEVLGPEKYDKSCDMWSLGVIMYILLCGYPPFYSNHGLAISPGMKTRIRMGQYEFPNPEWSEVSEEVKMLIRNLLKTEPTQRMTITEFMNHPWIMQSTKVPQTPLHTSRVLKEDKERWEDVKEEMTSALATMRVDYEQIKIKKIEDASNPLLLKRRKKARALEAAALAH
Serine/threonine-protein kinase haspin (Homo sapiens), sequence (Q8TF76 whole entry): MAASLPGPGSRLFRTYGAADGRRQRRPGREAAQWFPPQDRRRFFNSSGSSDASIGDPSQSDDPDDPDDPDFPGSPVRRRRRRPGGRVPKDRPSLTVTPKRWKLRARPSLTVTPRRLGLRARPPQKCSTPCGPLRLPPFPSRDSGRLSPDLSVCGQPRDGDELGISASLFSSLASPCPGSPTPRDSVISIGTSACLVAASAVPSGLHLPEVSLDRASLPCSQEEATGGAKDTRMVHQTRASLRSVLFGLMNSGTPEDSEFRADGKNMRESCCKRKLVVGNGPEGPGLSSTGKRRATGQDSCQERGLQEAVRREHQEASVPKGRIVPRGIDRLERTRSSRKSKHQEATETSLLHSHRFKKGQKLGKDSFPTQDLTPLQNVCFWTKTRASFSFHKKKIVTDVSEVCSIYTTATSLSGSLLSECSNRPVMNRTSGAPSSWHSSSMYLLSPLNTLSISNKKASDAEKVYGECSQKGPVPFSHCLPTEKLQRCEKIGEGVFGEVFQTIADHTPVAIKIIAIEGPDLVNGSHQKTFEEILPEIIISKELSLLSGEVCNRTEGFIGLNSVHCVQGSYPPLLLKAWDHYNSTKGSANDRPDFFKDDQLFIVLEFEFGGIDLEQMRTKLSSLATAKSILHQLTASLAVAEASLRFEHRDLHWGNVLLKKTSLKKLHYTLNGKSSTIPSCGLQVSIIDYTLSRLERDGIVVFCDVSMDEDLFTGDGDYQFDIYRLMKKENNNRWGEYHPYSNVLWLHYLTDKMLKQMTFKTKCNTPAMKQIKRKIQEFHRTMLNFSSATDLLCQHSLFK
Mitogen-activated protein kinase 1 (Homo sapiens), sequence (P28482 whole entry): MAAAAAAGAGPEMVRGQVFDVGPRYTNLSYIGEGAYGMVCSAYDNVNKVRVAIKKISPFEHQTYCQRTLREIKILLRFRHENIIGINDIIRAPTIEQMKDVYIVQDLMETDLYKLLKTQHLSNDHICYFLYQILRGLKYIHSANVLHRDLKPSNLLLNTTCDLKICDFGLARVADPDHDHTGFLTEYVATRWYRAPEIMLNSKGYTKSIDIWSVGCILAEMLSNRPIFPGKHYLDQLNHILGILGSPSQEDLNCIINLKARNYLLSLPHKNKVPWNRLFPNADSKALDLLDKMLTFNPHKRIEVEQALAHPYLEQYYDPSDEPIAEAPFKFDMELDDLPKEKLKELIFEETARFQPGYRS
Wee1-like protein kinase 2 (Homo sapiens), sequence (P0C1S8 whole entry, looked up): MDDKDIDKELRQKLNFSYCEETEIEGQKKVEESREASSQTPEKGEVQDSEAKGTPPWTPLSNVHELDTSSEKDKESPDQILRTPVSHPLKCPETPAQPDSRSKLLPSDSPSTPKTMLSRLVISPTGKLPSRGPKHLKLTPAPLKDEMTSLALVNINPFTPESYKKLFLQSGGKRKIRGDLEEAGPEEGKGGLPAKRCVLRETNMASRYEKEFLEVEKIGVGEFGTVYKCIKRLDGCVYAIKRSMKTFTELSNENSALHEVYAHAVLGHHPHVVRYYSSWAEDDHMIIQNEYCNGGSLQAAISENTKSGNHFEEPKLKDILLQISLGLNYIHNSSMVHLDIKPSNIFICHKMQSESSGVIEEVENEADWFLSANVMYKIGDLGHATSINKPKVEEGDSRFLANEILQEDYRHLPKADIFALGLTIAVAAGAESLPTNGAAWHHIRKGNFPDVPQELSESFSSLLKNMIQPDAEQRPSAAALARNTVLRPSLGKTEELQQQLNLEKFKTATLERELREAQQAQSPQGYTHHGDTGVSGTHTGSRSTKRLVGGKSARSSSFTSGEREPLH
Ribosomal protein S6 kinase alpha-6 (Homo sapiens), sequence (Q9UK32 whole entry): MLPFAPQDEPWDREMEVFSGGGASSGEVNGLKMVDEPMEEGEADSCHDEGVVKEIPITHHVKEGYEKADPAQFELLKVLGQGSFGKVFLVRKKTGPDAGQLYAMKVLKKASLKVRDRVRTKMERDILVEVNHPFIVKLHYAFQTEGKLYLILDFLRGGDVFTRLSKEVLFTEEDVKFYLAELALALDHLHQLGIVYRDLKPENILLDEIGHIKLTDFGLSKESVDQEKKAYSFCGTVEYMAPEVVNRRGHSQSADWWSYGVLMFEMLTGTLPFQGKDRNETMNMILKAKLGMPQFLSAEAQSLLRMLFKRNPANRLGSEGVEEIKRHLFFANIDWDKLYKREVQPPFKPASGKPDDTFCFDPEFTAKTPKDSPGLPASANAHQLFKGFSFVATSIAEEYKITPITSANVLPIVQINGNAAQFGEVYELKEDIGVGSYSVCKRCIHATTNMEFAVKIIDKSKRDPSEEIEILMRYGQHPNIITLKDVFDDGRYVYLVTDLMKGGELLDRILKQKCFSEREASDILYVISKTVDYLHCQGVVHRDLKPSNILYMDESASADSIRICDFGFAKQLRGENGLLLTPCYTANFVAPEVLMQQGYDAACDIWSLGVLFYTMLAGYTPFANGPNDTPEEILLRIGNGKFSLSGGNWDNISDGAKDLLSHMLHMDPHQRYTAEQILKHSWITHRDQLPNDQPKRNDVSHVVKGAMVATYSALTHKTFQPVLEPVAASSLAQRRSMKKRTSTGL
Mitogen-activated protein kinase 10 (Homo sapiens), sequence (P53779 whole entry): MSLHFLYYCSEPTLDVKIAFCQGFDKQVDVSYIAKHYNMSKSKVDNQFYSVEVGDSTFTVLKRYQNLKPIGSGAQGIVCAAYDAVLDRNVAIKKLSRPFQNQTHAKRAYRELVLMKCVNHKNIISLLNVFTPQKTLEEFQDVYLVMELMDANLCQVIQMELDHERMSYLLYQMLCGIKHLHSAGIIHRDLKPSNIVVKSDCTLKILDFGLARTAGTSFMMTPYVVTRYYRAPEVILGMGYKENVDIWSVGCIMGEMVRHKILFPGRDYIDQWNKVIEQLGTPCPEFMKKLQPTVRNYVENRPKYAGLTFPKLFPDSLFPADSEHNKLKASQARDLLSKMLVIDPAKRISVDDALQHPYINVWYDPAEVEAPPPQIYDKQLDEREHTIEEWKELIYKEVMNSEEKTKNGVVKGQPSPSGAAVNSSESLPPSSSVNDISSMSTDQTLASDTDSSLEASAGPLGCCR
Calcium/calmodulin-dependent protein kinase type II subunit gamma (Homo sapiens), sequence (Q13555 whole entry): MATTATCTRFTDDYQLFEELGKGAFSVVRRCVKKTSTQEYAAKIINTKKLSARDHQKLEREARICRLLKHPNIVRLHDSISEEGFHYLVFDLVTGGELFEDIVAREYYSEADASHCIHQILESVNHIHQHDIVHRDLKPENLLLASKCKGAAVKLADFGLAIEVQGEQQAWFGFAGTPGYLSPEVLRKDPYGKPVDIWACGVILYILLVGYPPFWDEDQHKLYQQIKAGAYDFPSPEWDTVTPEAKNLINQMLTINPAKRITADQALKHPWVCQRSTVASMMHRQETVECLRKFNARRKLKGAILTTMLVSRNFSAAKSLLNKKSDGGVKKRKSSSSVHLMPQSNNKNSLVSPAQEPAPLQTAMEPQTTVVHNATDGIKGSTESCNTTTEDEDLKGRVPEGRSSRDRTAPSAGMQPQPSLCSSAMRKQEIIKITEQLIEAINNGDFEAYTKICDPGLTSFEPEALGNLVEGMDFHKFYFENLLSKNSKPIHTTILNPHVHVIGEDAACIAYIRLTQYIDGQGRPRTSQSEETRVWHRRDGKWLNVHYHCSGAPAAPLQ
Casein kinase II subunit alpha (Homo sapiens), sequence (P68400 whole entry, looked up): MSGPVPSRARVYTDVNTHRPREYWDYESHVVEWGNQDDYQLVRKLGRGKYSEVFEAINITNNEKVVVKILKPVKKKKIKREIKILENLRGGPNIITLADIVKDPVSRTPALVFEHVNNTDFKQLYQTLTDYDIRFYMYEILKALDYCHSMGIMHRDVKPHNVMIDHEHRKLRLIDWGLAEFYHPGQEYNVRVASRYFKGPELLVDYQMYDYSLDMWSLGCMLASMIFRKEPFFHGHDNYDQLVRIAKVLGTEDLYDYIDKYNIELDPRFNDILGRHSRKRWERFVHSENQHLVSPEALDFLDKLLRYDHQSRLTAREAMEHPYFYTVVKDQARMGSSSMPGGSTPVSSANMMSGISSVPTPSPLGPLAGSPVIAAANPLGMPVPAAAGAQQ
Serine/threonine-protein kinase DCLK3 (Homo sapiens), sequence (Q9C098 whole entry): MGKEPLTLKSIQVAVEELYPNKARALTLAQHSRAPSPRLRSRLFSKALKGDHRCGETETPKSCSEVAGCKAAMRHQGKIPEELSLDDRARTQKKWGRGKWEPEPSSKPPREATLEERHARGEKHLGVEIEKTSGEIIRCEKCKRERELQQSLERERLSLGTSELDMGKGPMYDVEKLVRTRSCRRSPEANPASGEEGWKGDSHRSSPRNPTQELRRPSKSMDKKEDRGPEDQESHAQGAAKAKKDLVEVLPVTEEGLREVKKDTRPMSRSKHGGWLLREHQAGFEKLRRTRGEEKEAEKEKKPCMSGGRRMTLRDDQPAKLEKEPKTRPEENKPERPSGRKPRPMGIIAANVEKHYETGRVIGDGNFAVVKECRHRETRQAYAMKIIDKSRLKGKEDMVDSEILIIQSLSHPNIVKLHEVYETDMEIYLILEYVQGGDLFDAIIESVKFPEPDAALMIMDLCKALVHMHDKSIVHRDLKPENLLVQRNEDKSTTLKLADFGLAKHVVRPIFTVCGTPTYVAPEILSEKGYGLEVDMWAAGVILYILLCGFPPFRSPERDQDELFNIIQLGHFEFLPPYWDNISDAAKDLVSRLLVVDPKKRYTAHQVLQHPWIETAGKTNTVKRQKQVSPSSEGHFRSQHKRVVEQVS

CCC(=N\O)/C(C)=C/c1ccc(F)cc1 [A-079]
inactive: residual activity [1] 73% | residual activity [2] 94% | residual activity [3] 100% | inhibition [4] 15.2% | residual activity [5] 71% | residual activity [6] 81% | residual activity [7] 93% | residual activity [8] 71% | residual activity [9] 86% | residual activity [10] 100% | residual activity [11] 100% | residual activity [12] 83% | residual activity [13] 63% | inhibition [14] 8.18% | residual activity [15] 100% | residual activity [16] 100% | residual activity [17] 74% | inhibition [18] 13.4% | inhibition [19] 4.32% | residual activity [20] 69% | residual activity [21] 84% | residual activity [22] 100% | residual activity [23] 84% | residual activity [24] 74% | residual activity [25] 85% | residual activity [26] 90% | inhibition [27] 14.7% | residual activity [28] 99% | residual activity [29] 68% | residual activity [30] 77% | residual activity [31] 65% | residual activity [32] 100% | residual activity [33] 80% | inhibition [34] 14.5% | residual activity [35] 83% | residual activity [36] 100% | residual activity [37] 86%

CCC(=N\O)/C(C)=C/c1ccc(F)c(C)c1 [A-226]
inactive: residual activity [1] 100% | residual activity [2] 100% | residual activity [3] 100% | inhibition [4] -2.46% | residual activity [5] 92% | residual activity [6] 100% | residual activity [7] 100% | residual activity [8] 100% | residual activity [9] 100% | residual activity [10] 61% | residual activity [11] 100% | residual activity [12] 100% | residual activity [13] 100% | inhibition [14] -0.42% | residual activity [15] 90% | residual activity [16] 88% | residual activity [17] 99% | inhibition [18] -0.91% | inhibition [19] -0.3% | residual activity [20] 94% | residual activity [21] 83% | residual activity [22] 100% | residual activity [23] 100% | residual activity [24] 100% | residual activity [25] 88% | residual activity [26] 100% | inhibition [27] 16.7% | residual activity [28] 100% | residual activity [29] 89% | residual activity [30] 100% | residual activity [31] 100% | residual activity [32] 100% | residual activity [33] 100% | inhibition [34] 8.6% | residual activity [35] 100% | residual activity [36] 100% | residual activity [37] 100%
